Literature values as cited in US20180311274A1, “IN SITU NEUTRALIZATION COMPOSITION” (Kramer Laboratories, Inc., priority 2017, published 2018).

Q: For `Cc1cccc(N(C)C(=S)Oc2ccc3ccccc3c2)c1` [Tolnaftate], which solubility in water is on record?
A: The solubility in water was “practically insoluble”.
